How the values were obtained:
[1] = grouping used to generate the distinguishing gene profiles; cited from earlier work
[2] = tested on: rat heart tissue; experiment: GENECALLING differential gene expression analysis after dosing of serotonin modulating agents; assay type: in vivo, Sprague Dawley rats
Method in brief: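 GENECALLING profiling of cDNA from total RNA, keeping gene fragments modulated beyond ±1.5-fold. Tissue collected 24 h after final dosing of serotonin modulating agents; control rats received sterile water or canola oil.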

## CNCCC(Oc1ccc(C(F)(F)F)cc1)c1ccccc1 (stereo not drawn) [fluoxetine]
[1]
  classification as cardiotoxic or noncardiotoxic serotonin modulating agent: noncardiotoxic
[2]; CARDIOTOX 1
  Effects on Transcription Level: Novel gene fragment, 524 bp, 86% SI to mouse F-box protein FBX6b [AF176526]: +1.3 fold
[2]; CARDIOTOX 2
  Effects on Transcription Level: Novel gene fragment, 306 bp, 91% SI to mouse low density lipoprotein receptor related protein 4 [AB013874]: −1.3 fold
[2]; CARDIOTOX 3
  Effects on Transcription Level: Novel gene fragment, 540 bp, 97% SI to mouse skeletal muscle alpha-actin [X03766]: −1.2 fold
[2]; CARDIOTOX 4
  Effects on Transcription Level: Novel gene fragment, 80 bp: −1.3 fold
[2]; CARDIOTOX 5
  Effects on Transcription Level: Novel gene fragment, 957 bp, 99% SI to kidney injury associated moleculer HW036 [V80591]: −1.4 fold
[2]; CARDIOTOX 6
  Effects on Transcription Level: Novel gene fragment, 282 bp, 85% SI to human KIAA1515 protein [AB040948]: −1.2 fold
[2]; CARDIOTOX 7
  Effects on Transcription Level: Novel gene fragment, 405 bp, 88% SI to human 2-oxoglutarate dehydrogenase [D10523]: +1.2 fold
[2]; CARDIOTOX 8, GenBank AB010743
  Effects on Transcription Level: UCP2: −1.3 fold
[2]; CARDIOTOX 9, GenBank J03753
  Effects on Transcription Level: Plasma membrane Ca2 + ATPase-isoform 1: −1.1 fold
[2]; CARDIOTOX 10
  Effects on Transcription Level: Novel gene fragment, 242 bp, 97% SI to mouse HSP86 heat-shock protein [X16857]: +1.4 fold
[2]; CARDIOTOX 11
  Effects on Transcription Level: Novel gene fragment, 280 bp, 65% SI to human TRF1-interacting, ankyrin-related ADP-ribose polymerase [AF082556]: +1.3 fold
[2]; CARDIOTOX 12
  Effects on Transcription Level: Novel gene fragment, 348 bp, 88% SI to mouse Sec61 protein complex gamma subunit [U11027]: +1.2 fold
[2]; CARDIOTOX 13
  Effects on Transcription Level: Novel gene fragment 553 bp, 93% SI to mouse Sid329 [AB024984]: +1.1 fold
[2]; CARDIOTOX 14, GenBank AB020759
  Effects on Transcription Level: Kruppel-like transcription factor: +1.3 fold
[2]; CARDIOTOX 15, GenBank X62166
  Effects on Transcription Level: Ribosomal protein L3: +1.1 fold
[2]; CARDIOTOX 16, GenBank S78556
  Effects on Transcription Level: Glucose-regulated protein (GRP) 75: +1.3 fold
[2]; CARDIOTOX 17, GenBank M14050
  Effects on Transcription Level: Immunoglobulin heavy chain binding protein (BiP): +1.4 fold
[2]; CARDIOTOX 18, GenBank X56541
  Effects on Transcription Level: Membrane-spannining proteoglycan NG2: −1.2 fold
[2]; CARDIOTOX 19
  Effects on Transcription Level: Novel gene fragment, 1294 bp, 96% SI to mouse Sui 1 (elF) homolog [AF129888]: +1.1 fold
[2]; CARDIOTOX 20
  Effects on Transcription Level: Novel gene fragment, 723 bp, 85% SI to human translation initiation factor elF3 p40 subunit [U54559]: +1.0 fold
[2]; CARDIOTOX 21
  Effects on Transcription Level: Novel gene fragment, 1324 bp, 76% SI to human flavoprotein subunit of complex II [D30648]: +1.3 fold
[2]; CARDIOTOX 22
  Effects on Transcription Level: Novel gene fragment, 852 bp, 81% SI to human vacuolar proton-ATPase subunit M9.2 [Y15286]: +1.2 fold
[2]; CARDIOTOX 23
  Effects on Transcription Level: Novel gene fragment, 178 bp, 91% SI to mouse myosin light chain-2 isoform MLC-2a [S70785]: +1.3 fold
[2]; CARDIOTOX 24
  Effects on Transcription Level: Novel gene fragment, 167 bp, 90% SI to mouse Rab20 [X80332]: −1.2 fold
[2]; CARDIOTOX 25
  Effects on Transcription Level: Novel gene fragment, 1070 bp, 80% SI to human muscle-specific protein [AF249873]: +1.3 fold
[2]; CARDIOTOX 26
  Effects on Transcription Level: Novel gene fragment, 1143 bp, 82% SI to human sarcoma amplified sequence (SAS) [U01160]: +1.2 fold
[2]; CARDIOTOX 27
  Effects on Transcription Level: Novel gene fragment, 74 bp,75% SI to human secreted protein [X30160] (from patent database)/[X97578] (from patent database)/potential cytokine): +1.2 fold
[2]; CARDIOTOX 28
  Effects on Transcription Level: Novel gene fragment, 408 bp, 90% SI to human CGI-07 protein [AF132941]: +1.2 fold
[2]; CARDIOTOX 29
  Effects on Transcription Level: Novel gene fragment, 618 bp, 95% SI to rat progression related cDNA, ZNPE-120 3′ end partial sequence [patent database X90805]: +1.4 fold
[2]; CARDIOTOX 30
  Effects on Transcription Level: Novel gene fragment, 717 bp: +1.2 fold
[2]; CARDIOTOX 31
  Effects on Transcription Level: Novel gene fragment, 546 bp: +1.1 fold
[2]; CARDIOTOX 32
  Effects on Transcription Level: Novel gene fragment, 920 bp, 91% SI to human HSPC061 [AF161546]: +1.4 fold
[2]; CARDIOTOX 33
  Effects on Transcription Level: Novel gene fragment, 203 bp, 92% SI to rabbit sarcoplasmic reticulum glycoprotein [J04480]: −1.4 fold
[2]; CARDIOTOX 34
  Effects on Transcription Level: Novel gene fragment, 178 bp, 68% SI to mouse IgG receptor (beta-Fc-gamma-RII)[M63159]: +1.3 fold
[2]; CARDIOTOX 35, GenBank X87107
  Effects on Transcription Level: Ribosomal protein L6: +1.2 fold
[2]; CARDIOTOX 36, GenBank U31935
  Effects on Transcription Level: CAP2 protein (adenylyl cyclase-associated protein 2): +1.4 fold
[2]; CARDIOTOX 37, GenBank M63837
  Effects on Transcription Level: Alpha-platelet-derived growth factor receptor: +1.3 fold
[2]; CARDIOTOX 38, GenBank X74402
  Effects on Transcription Level: Rab GD1 alpha protein: −1.3 fold
[2]; CARDIOTOX 39, GenBank Y08355
  Effects on Transcription Level: PKC-zeta-interacting protein: +1.1 fold
[2]; CARDIOTOX 40, GenBank X65198
  Effects on Transcription Level: ERK or MAP kinase: +1.3 fold
[2]; CARDIOTOX 41, GenBank U37486
  Effects on Transcription Level: Peroxisomal multifunctional enzyme type II: +1.3 fold
[2]; CARDIOTOX 42, GenBank D30035
  Effects on Transcription Level: HBP23 (heme-binding protein 23 kDa): +1.3 fold
[2]; CARDIOTOX 43, GenBank U90725
  Effects on Transcription Level: Caveolae-associated protein: +1.3 fold
[2]; CARDIOTOX 44, GenBank AF025506
  Effects on Transcription Level: Prenylated rab acceptor 1 (PRA1): +1.2 fold
[2]; CARDIOTOX 45
  Effects on Transcription Level: Novel gene fragment, 337 bp, 88% SI to rabbit cardiac ryanodine receptor (RyR-2)[U50465]: +1.3 fold
[2]; CARDIOTOX 46
  Effects on Transcription Level: Novel gene fragment, 81 bp, 85% SI to human titin [X90568]: −1.1 fold
[2]; CARDIOTOX 47
  Effects on Transcription Level: Novel gene fragment, 428 bp, 86% SI to human titin [X90568]: +1.1 fold
[2]; CARDIOTOX 48
  Effects on Transcription Level: Novel gene fragment, 374 bp, 88% SI to human titin [X90568]: +1.1 fold
[2]; CARDIOTOX 49
  Effects on Transcription Level: Novel gene fragment, 428 bp, 85% SI to human titin [90568]: −1.3 fold
[2]; CARDIOTOX 50
  Effects on Transcription Level: Novel gene fragment, 1216 bp, 93% SI to mouse mircotubule-associated protein (MAP) 1B protein [AF115776]: −1.2 fold
[2]; CARDIOTOX 51
  Effects on Transcription Level: Novel gene fragment, 1115 bp, 83% SI to human KIAA0549 protein [AB011121]: −1.4 fold
[2]; CARDIOTOX 52
  Effects on Transcription Level: Novel gene fragment, 153 bp: −1.4 fold
[2]; CARDIOTOX 53
  Effects on Transcription Level: Novel gene fragment, 89 bp, 93% SI to human putative glialblastoma cell differentiation-related protein (GBDR1) [AF068195]: −1.0 fold
[2]; CARDIOTOX 54, GenBank U61266
  Effects on Transcription Level: Rho-associated kinase beta: −1.2 fold
[2]; CARDIOTOX 55, GenBank D13062
  Effects on Transcription Level: Adenylate kinase 3: +1.3 fold
[2]; CARDIOTOX 56, GenBank AF049878
  Effects on Transcription Level: Amyloid beta-peptide binding protein: +1.3 fold
[2]; CARDIOTOX 57, GenBank D12771
  Effects on Transcription Level: Mitochondrial adenine nuleotide translocator: +1.4 fold
[2]; CARDIOTOX 58
  Effects on Transcription Level: Novel gene fragment, 710 bp, 94% SI to mouse chromatin structural protein homolog Supt5 hp (Supt5 h)[U88539]: +2.8 fold
[2]; CARDIOTOX 60
  Effects on Transcription Level: Novel gene fragment, 186 bp, 66% SI to human N-acetylglucosaminyltransferase 1 (GlcNAc-TI)[M55621]: −2.7 fold
[2]; CARDIOTOX 61
  Effects on Transcription Level: Novel gene fragment, 238 bp, 95% SI to mouse MAP kinase-activated protein kinase 2 [X76850]: −1.7 fold
[2]; CARDIOTOX 62
  Effects on Transcription Level: Novel gene fragment, 173 bp, 70% SI to G protein-coupled receptor kinase GRK4 [X97568]: −4.7 fold
[2]; CARDIOTOX 63
  Effects on Transcription Level: Novel gene fragment, 133 bp, 77% SI to human apoptosis related protein hSARP3 [patent database: V19114]: −2.6 fold
[2]; CARDIOTOX 64
  Effects on Transcription Level: Novel gene fragment, 477 bp, 98% SI to peroxisomal phytanoyl-CoA hydroxylase (PHYH) [AF121345]: +3.7 fold
[2]; CARDIOTOX 65
  Effects on Transcription Level: Novel gene fragment, 413 bp, 95% SI to mouse dihydrolipoamide dehydrogenase (Dld) [U73445]: +2.0 fold
[2]; CARDIOTOX 66
  Effects on Transcription Level: Novel gene fragment, 726 bp, 76% SI to human succinate dehydrogenase flavoprotein subunit (SDH) [L21936]: −4.4 fold
[2]; CARDIOTOX 67
  Effects on Transcription Level: Novel gene fragment, 440 bp, 92% SI to mouse cytochrome c oxidase Vllc [X52940]: +2.1 fold
[2]; CARDIOTOX 68
  Effects on Transcription Level: Novel gene fragment, 276 bp, 80% SI to human titin [X90568]: −11.0 fold
[2]; CARDIOTOX 69
  Effects on Transcription Level: Novel gene fragment, 149 bp, 70% SI to human titin [X90568]: −3.7 fold
